Activity calls are given as the source filed them. The rule behind the calls is not given here. Some results are limits rather than exact numbers.

Usually IC50 stands for the midpoint of a concentration-inhibition curve. By Papp A→B is commonly meant how fast a substance crosses the layer from the apical side. One may read the solubility as how much of the substance goes into solution per volume. What is called fraction unbound is the share of the substance not bound to proteins or other matrix.

Chain of Nicotinamide phosphoribosyltransferase (P43490 whole entry): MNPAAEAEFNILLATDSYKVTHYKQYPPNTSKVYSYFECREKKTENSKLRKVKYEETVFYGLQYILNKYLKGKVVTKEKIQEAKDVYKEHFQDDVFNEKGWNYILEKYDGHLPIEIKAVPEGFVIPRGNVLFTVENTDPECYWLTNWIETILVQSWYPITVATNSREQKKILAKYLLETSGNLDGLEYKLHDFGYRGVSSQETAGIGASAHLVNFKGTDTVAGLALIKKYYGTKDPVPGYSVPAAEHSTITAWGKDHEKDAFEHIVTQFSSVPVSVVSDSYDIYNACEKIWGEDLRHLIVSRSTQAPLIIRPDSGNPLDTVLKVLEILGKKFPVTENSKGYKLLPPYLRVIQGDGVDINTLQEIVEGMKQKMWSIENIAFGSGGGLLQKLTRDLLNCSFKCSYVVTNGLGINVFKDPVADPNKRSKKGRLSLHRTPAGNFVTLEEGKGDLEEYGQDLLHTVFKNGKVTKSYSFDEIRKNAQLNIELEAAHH

One data set has as its target Nicotinamide phosphoribosyltransferase (Homo sapiens, UniProt P43490). The data set is described as follows: Inhibition of C-terminal His-6-tagged full length human NAMPT expressed in Escherichia coli (DE3) cells after 30 mins by mass spectrometry-based analysis.
Conditions: not given
As for `O=C(NCc1ccc(S(=O)(=O)c2cncc(Cl)c2)cc1)c1cnc2[nH]ncc2c1`, the IC50 was 11 nM.

`O=C(NCc1ccc(S(=O)(=O)c2cnc3ccccc3c2)cc1)c1cnc2[nH]ncc2c1` showed an IC50 of 8.2 nM.

Compound `O=C(NCc1ccc(S(=O)(=O)N2CC3(CCOCC3)C2)cc1)c1cnc2[nH]ncc2c1` gave a half-maximal inhibitory concentration (IC50) of 110 nM.

In the case of `O=C(NCc1ccc(S(=O)(=O)c2ccccc2)cc1)c1cc2cn[nH]c2cn1`, the concentration for half-maximal inhibition (IC50) is > 2000 nM.

`N#CC1CCN(S(=O)(=O)c2ccc(CNC(=O)c3cnc4[nH]ncc4c3)cc2)CC1`: 410 nM corresponded to half-maximal inhibition (IC50).

`COC1CCN(S(=O)(=O)c2ccc(CNC(=O)c3cnc4[nH]ncc4c3)cc2)CC1` displayed a concentration for half-maximal inhibition (IC50) of 400 nM.

In the case of `O=C(NCc1ccc(S(=O)(=O)N2CCCCC2)cc1)c1ccc2[nH]ncc2c1`, the half-inhibitory concentration (IC50) was > 2000 nM.

System in another data set: not listed separately
The data set is described as follows: Apparent permeability from apical to basolateral side in MDCK cells at 10 uM by LC-MS/MS analysis. It is filed as ADME, cell-based, Canis lupus familiaris. Conditions: dog.
With `O=C(NCc1ccc(S(=O)(=O)c2cncc(Cl)c2)cc1)c1cnc2[nH]ncc2c1`, the apparent permeability from apical to basolateral (Papp A→B) at 10 µM came out at 2.5 ×10⁻⁶ cm/s.

Consider `O=C(NCc1ccc(S(=O)(=O)c2cnc3ccccc3c2)cc1)c1cnc2[nH]ncc2c1`, for which the Papp A→B at 10 µM worked out at 1.6 ×10⁻⁶ cm/s.

The test system of the next data set is A2780. The data set is described as follows: Antiproliferative activity against human A2780 cells assessed as cell viability after 72 hrs by SRB assay. Conditions: A2780, 72 h. It is filed as functional, cell-based. For orientation: Sulforhodamine B stains cellular protein and so reports cell mass.
With `O=C(NCc1ccc(S(=O)(=O)c2cncc(Cl)c2)cc1)c1cnc2[nH]ncc2c1`, the IC50 was 2.4 nM.

As to `O=C(NCc1ccc(S(=O)(=O)c2cnc3ccccc3c2)cc1)c1cnc2[nH]ncc2c1`, the IC50 came to 2.2 nM.

For the compound `O=C(NCc1ccc(S(=O)(=O)N2CC3(CCOCC3)C2)cc1)c1cnc2[nH]ncc2c1`, the IC50 turned out to be 45 nM.

For `O=C(NCc1ccc(S(=O)(=O)c2ccccc2)cc1)c1cc2cn[nH]c2cn1`, the IC50 is > 2000 nM.

As for `N#CC1CCN(S(=O)(=O)c2ccc(CNC(=O)c3cnc4[nH]ncc4c3)cc2)CC1`, the IC50 is > 2000 nM.

For `COC1CCN(S(=O)(=O)c2ccc(CNC(=O)c3cnc4[nH]ncc4c3)cc2)CC1`, the IC50 was 39 nM.

Regarding `O=C(NCc1ccc(S(=O)(=O)N2CCCCC2)cc1)c1ccc2[nH]ncc2c1`, the half-inhibitory concentration (IC50) was > 2000 nM.

In the next data set the test system is A2780. The data set is described as follows: Antiproliferative activity against human A2780 cells assessed as cell viability after 72 hrs by SRB assay in presence of nitotinamide mononucleotide. It counts as functional, cell-based.
Conditions: not given
Take `O=C(NCc1ccc(S(=O)(=O)c2cncc(Cl)c2)cc1)c1cnc2[nH]ncc2c1`: the inhibition result is “inactive”.

For `O=C(NCc1ccc(S(=O)(=O)c2cnc3ccccc3c2)cc1)c1cnc2[nH]ncc2c1`, the inhibition result was “inactive”.

Regarding `O=C(NCc1ccc(S(=O)(=O)N2CC3(CCOCC3)C2)cc1)c1cnc2[nH]ncc2c1`, the inhibition result was “inactive”.

For the compound `O=C(NCc1ccc(S(=O)(=O)c2ccccc2)cc1)c1cc2cn[nH]c2cn1`, the inhibition result was “inactive”.

Consider `N#CC1CCN(S(=O)(=O)c2ccc(CNC(=O)c3cnc4[nH]ncc4c3)cc2)CC1`, for which the inhibition result is “inactive”.

Consider `COC1CCN(S(=O)(=O)c2ccc(CNC(=O)c3cnc4[nH]ncc4c3)cc2)CC1`, for which the inhibition result was “inactive”.

`O=C(NCc1ccc(S(=O)(=O)N2CCCCC2)cc1)c1ccc2[nH]ncc2c1`: the inhibition result was “inactive”.

System in a further data set: not listed separately
The data set is described as follows: Aqueous solubility of the compound in PBS at pH 7.2 by LC/CLND analysis. It is filed as physicochemical.
Conditions: not given
With `O=C(NCc1ccc(S(=O)(=O)c2cncc(Cl)c2)cc1)c1cnc2[nH]ncc2c1`, the solubility is < 1 µM.

For the compound `O=C(NCc1ccc(S(=O)(=O)c2cnc3ccccc3c2)cc1)c1cnc2[nH]ncc2c1`, the solubility was < 1 µM.

System in a further data set: not listed separately
The data set is described as follows: Fraction unbound in mouse plasma at 5 uM by LC-MS/MS analysis.
Conditions: not given
It is filed as ADME, cell-free.
The compound `O=C(NCc1ccc(S(=O)(=O)c2cncc(Cl)c2)cc1)c1cnc2[nH]ncc2c1` returned an unbound share (fraction unbound) at 5 µM of 0.074.

Turning to `O=C(NCc1ccc(S(=O)(=O)c2cnc3ccccc3c2)cc1)c1cnc2[nH]ncc2c1`, the free fraction (fraction unbound) at 5 µM turned out to be 0.009.

(Values after ChEMBL document CHEMBL3259558, “Identification of amides derived from 1H-pyrazolo[3,4-b]pyridine-5-carboxylic acid as potent inhibitors of human nicotinamide phosphoribosyltransferase (NAMPT)” (Bioorg Med Chem Lett, 2013).)
